The results in this text go back to article PMC10619691, “Effect of cyclic substituents on the anti-cancer activity and DNA interaction of ruthenium(II) bis-phenanthroline dipyridoquinoline” (Frontiers in Molecular Biosciences, 2023).

The subject of one data set is HeLa cells. The data set is described as follows: cellular localization by confocal fluorescence microscopy. The settings on record: 50 μM, 2 h incubation, co-localization with DAPI. Type of data set: cell-based, human. The protocol:
This was further confirmed by the co-localization of these complexes with a nuclear counterstain (DAPI) (Figure 2).
Fluorescence microscopy was used to study cellular localization. HeLa cells were seeded on autoclaved coverslips in the 6-well plate and incubated at 37°C for 48 h, after which the culture media were replaced with media containing VNK-572 (50 μM) and VNK-754 (50 μM), respectively, and further incubation was performed for 2 h. Following this, the cells were fixed with Carnoy’s solution and washed twice with PBS thereafter. Finally, the HeLa cells were counterstained with DAPI, and the seeded coverslips were inverted and placed on slides for examination. A Leica confocal microscope was used for the observation of the samples using a magnification of ×63.

A further data set deals with CT-DNA. The data set is described as follows: viscometry of DNA with bound complex. In kind it is binding, calf. The settings on record: 25°C. An excerpt: This reduction reflects increased flexibility of the DNA due to electrostatic and steric factors, which is consistent with the LD results for POW-12A but can also occur if the DNA becomes kinked or bent upon binding a small molecule.
An uncalibrated Cannon-Manning extra-low charge semi-micro viscometer (size 75) was used to measure the relative intrinsic viscosity of dilute DNA solutions, according to the manufacturer’s instructions (Cannon Instrument Company) and as described previously ([MoradpourHafshejani et al., 2013]). The viscometer was immersed in a water bath thermostated at 25°C. The DNA concentration and viscometer volume ([…]) were kept constant for a series of added dye concentrations. The flow time for water was ∼177 s, and that for DNA solutions was >245 s. Measurements were carried out in triplicate and provided standard deviations of <±1 s. The flow times are related to the relative intrinsic viscosity according to Eq. 1, where [η] is the intrinsic viscosity in the presence of dye and [η]0 is the intrinsic viscosity of free DNA. t0, td, and tx represent the flow times for buffer only, naked DNA, and dye-bound DNA, respectively. […] If the persistence length is reduced or the DNA is bent (dynamically or statically), the slope will be lowered. tx−tt/td−tt3=η/η03=L/L0=1+αr. (1)

Data set [1] in a line: partition coefficient (log P), shake-flask method. In kind it is physicochemical. Conditions: phosphate buffered saline (pH 7.4) / 1-octanol. The text has this:
The role of lipophilicity in the activity of ruthenium (II) polypyridyl complexes is one that has been extensively reported ([Notaro and Gasser, 2017]). […] Based on this, we carried out a partition coefficient (log P) test using a shake-flask method to determine whether the marginal structural differences between VNK-754, VNK-572, and POW-12A affect their lipophilicity and to examine whether such a difference in lipophilicity confers any advantage to their anti-cancer activity. The log P results, as presented in Table 2, clearly show VNK-572 (0.014) and POW-12A (0.077) to be more lipophilic than VNK-754 (−0.874). […] Thus, along with varied DNA intercalating properties, this explains, in part, why there are appreciable differences in the cytotoxic effects of VNK572 and POW12A compared to VNK-754, even though they are generally similar in structure. For example, VNK-572 with an additional benzene ring can penetrate the bi-lipid-layered cell membrane better and achieve higher cellular and nuclear concentrations than VNK-754, producing a greater anti-tumor effect.
To study the lipophilicity of our complexes, we used the shake-flask method at 25.0 °C ± 0.1°C in line with the previously reported protocol ([Dubey et al., 2017]). Equal volumes of the aqueous phase (phosphate buffered saline, pH 7.4) and the 1-octanol phase were pre-saturated with each other overnight. A known amount of the complexes (respectively) was added to the aqueous phase, ensuring our final concentration was within the range of UV spectroscopic analysis; then, an equal volume of the pre-saturated […] phase was added. Both phases were then mixed in a conical flask and left shaking on a thermostatic shaker at a speed of 100 rpm overnight at room temperature. […] Considering that lipophilic compounds will partition into the octanol phase, the concentration of the complexes left in the aqueous phase was analyzed, respectively, by UV spectroscopy; then, the Log P value was calculated: Logp = Log10 ([solute] un-ionized octanol/[solute] un-ionized water).

`F[P-](F)(F)(F)(F)F.F[P-](F)(F)(F)(F)F.[Ru+2].c1cnc2c(c1)c1ncc3c(c1c1cccnc12)CCC3.c1cnc2c(c1)ccc1cccnc12.c1cnc2c(c1)ccc1cccnc12` [POW-12A]: the cellular localization entry in the data set on HeLa cells is reported as “penetrate the nucleus”. Further, the “effect on DNA viscosity / length” value in the data set on CT-DNA was “reduces the viscosity of DNA”. The LogP (as a rule, the decadic logarithm of the partition coefficient of the neutral form, usually between octanol and water) in data set [1] came out at 0.077.
The like results for `F[P-](F)(F)(F)(F)F.F[P-](F)(F)(F)(F)F.[Ru+2].c1cnc2c(c1)c1ncc3c(c1c1cccnc12)CCCC3.c1cnc2c(c1)ccc1cccnc12.c1cnc2c(c1)ccc1cccnc12` [VNK-572] were, in that order, “penetrate the nucleus”, “elongates DNA” and 0.014.
